Source: ChEMBL document CHEMBL1132363, “Asymmetric synthesis and antiviral activities of L-carbocyclic 2', 3'-didehydro-2',3'-dideoxy and 2',3'-dideoxy nucleosides” (J Med Chem, 1999)

Key:
Homo sapiens [1] = species on record: Homo sapiens; test: The compound was tested in vitro for the anti-HBV activity against 2.2.15 cells; type: functional, cell-based; details: HepG2 2.2.15
[2] = The compound was tested for the cytotoxicity against peripheral blood mononuclear (PBM)cells; type: functional, cell-based; details: Homo sapiens
[3] = The compound was tested in vitro for the anti-HIV activity against peripheral blood mononuclear (PBM)cells; type: functional; details: Homo sapiens
Vero = test: The compound was tested for the cytotoxicity against Vero cells; type: functional, cell-based; details: Chlorocebus sabaeus
CCRF-CEM = test: The compound was tested for the cytotoxicity against CEM cells; type: functional, cell-based; details: Homo sapiens
Homo sapiens [4] = species on record: Homo sapiens; test: The compound was tested in vitro for the anti-HBV activity in 2.2.15 cells; type: functional, cell-based; details: HepG2 2.2.15
[5] = The compound was tested for the cytotoxicity against peripheral blood mononuclear (PBM) cells; type: functional, cell-based; details: Homo sapiens
[6] = The compound was tested in vitro for the anti-HIV activity in peripheral blood mononuclear (PBM) cells; type: functional; details: Homo sapiens

Row | SMILES | EC50 (Homo sapiens [1]) [µM] | IC50 [2] [µM] | EC50 [3] [µM] | IC50 (Vero) [µM] | IC50 (CCRF-CEM) [µM] | EC50 (Homo sapiens [4]) [µM] | IC50 [5] [µM] | EC50 [6] [µM] | EC90 [3] [µM]
1 | Nc1ncnc2c1ncn2[C@@H]1C=C[C@H](CO)C1 | 0.9 | > 100 | 2.4 | > 100 | > 100 |  |  |  | 
2 | O=c1ccn(C2CCC(CO)C2)c(=O)[nH]1 (stereo not drawn) | > 10 | > 100 | > 100 | > 100 | > 100 |  |  |  | 
3 | O=c1ccn([C@@H]2C=C[C@H](CO)C2)c(=O)[nH]1 | > 10 | > 100 | > 100 | > 100 | > 100 |  |  |  | 
4 | OC[C@H]1C=C[C@@H](n2cnc3c(S)ncnc32)C1 |  |  |  | > 100 | > 100 | > 10 | > 100 | > 100 | 
5 | Nc1ncnc2c1ncn2C1CCC(CO)C1 (stereo not drawn) | > 50 | > 100 | 27 | > 100 | > 100 |  |  |  | 
6 | Nc1ccn([C@@H]2C=C[C@H](CO)C2)c(=O)n1 | > 10 | > 100 | 38.8 | > 100 | > 100 |  |  |  | 65.9
7 | OC[C@H]1CC[C@@H](n2cnc3c(O)ncnc32)C1 |  | > 100 |  | > 100 | > 100 | > 10 |  | > 100 | 
8 | Cc1cn(C2CCC(CO)C2)c(=O)[nH]c1=O (stereo not drawn) | > 10 | > 100 | > 100 | 171 | > 100 |  |  |  | 
9 | OC[C@H]1C=C[C@@H](n2cnc3c(O)ncnc32)C1 | > 10 | > 100 | > 100 | > 100 | > 100 |  |  |  | 
10 | Nc1nc(O)c2ncn([C@@H]3C=C[C@H](CO)C3)c2n1 | > 200 |  | > 200 |  |  |  |  |  | 
11 | COC1O[C@H]2[C@H](COC(C)(C)C)C[C@H](n3cnc4c(Cl)ncnc43)[C@H]2O1 (stereo partly drawn) | > 10 | > 100 | > 100 | > 100 | > 100 |  |  |  | 
12 | Cc1cn([C@@H]2C=C[C@H](CO)C2)c(=O)[nH]c1=O | > 10 | 66.6 | > 100 | 49.4 | > 100 |  |  |  | 
